Here are results for one compound from US12617818B2, “Compositions and methods for modulating myosin subfragment-2 coiled coil stability and methods for using them” (UNIVERSITY OF NORTH TEXAS, priority 2020, dated 2026).

Experiment [1] concerns the target T1, cardiac muscle myosin S2 peptide E930del (MYH7 E930del) (Homo sapiens, UniProt P12883, DEL931-931).
T1 construct: host or cells: chemical synthesis
T1 sequence (P12883 with tags, fused parts or gaps DEL931-931): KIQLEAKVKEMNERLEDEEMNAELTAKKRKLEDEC
Put plainly: GFS, uncoiling of E930del cardiac myosin S2 peptide dimer. The experiment is classed as biochemical. The note with it: length 10 nm; in presence of stabilizer; ± SEM. The source says: 3-aminopropyltriethoxysilane, acetone, coupling buffer (0.01 M pyridine in water with pH 6.0), 5% glutaraldehyde, quenching solution (1 M glycine in water with pH 7.0), blocking buffer (0.01 M Tris, 0.1% sodium azide, 0.1% bovine serum albumin, 0.15 M sodium chloride, and 0.001 M ethylenediaminetetraacetic acid with pH 7.0), wash buffer (0.01 M Tris, 0.1% sodium azide, 0.15 M sodium chloride, and 0.001 M ethylenediaminetetraacetic acid with pH 7.0) low salt buffer (0.1 M potassium chloride, 0.02 M imidazole, 5 mM magnesium chloride, with pH 7.0), 1-ethyl-3-(3-dimethyaminopropyl) carbodiimide, N-hydroxysuccinamide, iodoacetamide-succinimidyl ester, 8M urea solution (50 mM imidazole and 0.1 mM tris (2-carboxyethyl) phosphine with pH 7.0) monodisperse silica beads, glass slides, glass coverslips, vacuum grease, rabbit skeletal myosin, purified actin (G-actin), 1 μM human β-cardiac myosin S2 peptide, 1 μM human β-cardiac mutants myosin S2 peptide (E930del and E924K), 1 μM human skeletal myosin S2 peptide, 1 μM human smooth myosin S2 peptide, stabilizer peptide, and destabilizer peptide. A light microscope with an objective lens of 10× was mounted on an alt-azimuthal mount. A digital video camera of Sony, XCD-V60 was replaced with the ocular lenses. Extension springs on steel bracket held the alt-azimuthal mount suspended.
Gravitational force spectroscopy (GFS), is a single molecule force spectroscopy that utilizes gravitational force to measure absolute length of a single molecule at the given force calculated by the density of the bead suspending the molecule. This technique was discovered and developed in Root lab, which measures the forces in piconewton and sub-piconewton levels. Other than absolute length of a molecule, GFS measures force range required to uncoil, stretch or extend the molecule yielding a force-distance profile for the suspended molecule. Besides that, based on the force-distance profile, number of amino acids within the molecule can be calculated. […] The GFS allowed to test the flexibility or stability of a single molecule of myosin S2 peptide and also for the S2 peptides treated with anti-S2 peptides. Flexibility of myosin S2 is not dependent on assembly myosin as a thick filament or myosin in its single molecule form. […]
Free fall mode, another measurement variant of GFS which allows the user to get a force distance profile on a single molecule experiencing the gravitational force. […] During the free fall mode, GFS has a single molecule which is suspended within an immobile edge and mobile bead will now experience the variable force which would be calculated by the product of mass of the bead and the acceleration of the GFS. […]

Experiment [2] has as its target skeletal muscle myosin S2 peptide (MYH2) (Homo sapiens, UniProt Q9UKX2). As to the kind of experiment: FRET of skeletal muscle myosin S2 peptide dimer with anti-S2 peptides. Format: binding. Also noted: A 19 residue peptide of the S2 region of MYH2 was matched to the previously synthesized S2 peptide; host or cells: chemical synthesis. The note with it: Skeletal peptide with Stabilizer. The source says: MYH2 gene codes for human skeletal muscle myosin expressed in fast type IIA muscle fibers. This myosin isoform can be found within extraocular muscle. A 19 residue peptide of the S2 region of MYH2 was matched to the previously synthesized S2 peptide of cardiac isoform and chemically synthesized […]. Generated amino acid sequence used is as follow: residues 925 to 945
Resonance energy probes (donor and acceptor) were covalently attached to synthetic myosin S2 peptides of cardiac muscle, E930del cardiac muscle, E924K cardiac muscle, smooth muscle, and skeletal muscle (Aboonasrshiraz, N., 2020).
Acceptor probe was conjugated to muscle myosin S2 peptides at N-terminus. Muscle myosin S2 peptides were dissolved in 20 mM HEPES buffer at pH 8.0. And FITC was dissolved in few drops of N, N dimethyl formamide. […]
In FRET assay, Fluorescein Isothiocyanate (FITC) functioned as fluorescent acceptor probe and Terbium Diethylene Triamine Pentaacetic Acid-Cytosine (Lanthanide-DTPA-Cytosine) functioned as donor probe. […] Lifetime of donor probe was measured in milliseconds.
Like cardiac muscle myosin S2^pep, dilution by decreasing the concentration of dimer skeletal muscle myosin S2^pep was performed and further was treated with different concentrations of anti-S2 peptides (FIG. 28A, 28B). […] Calculated separation distance in presence of the stabilizer peptide was 3.58 nm.

Regarding `C[C@H](NC(=O)[C@H](CCCCN)NC(=O)[C@H](Cc1ccccc1)NC(=O)[C@H](CCCCN)NC(=O)[C@H](CCCCN)NC(=O)[C@H](CCCCN)NC(=O)[C@H](CCCCN)NC(=O)[C@H](CCCCN)NC(=O)[C@H](CCCCN)NC(=O)[C@H](CCCCN)NC(=O)[C@@H](N)CCCCN)C(=O)N[C@@H](CCCCN)C(=O)N[C@@H](CCCCN)C(=O)N[C@@H](CCCCN)C(=O)N[C@@H](CCCCN)C(=O)N[C@@H](CCCCN)C(=O)N[C@@H](CCCCN)C(=O)O` [Stabilizer], in experiment [1], the “Force required to uncoil S2 molecule” value was 1.07E+00 ± 8.28E−02 pN. The “TD (donor lifetime without acceptor)” value in experiment [2] is listed as 1.73E−03.
